Columns and labels:
Type in all cases: in vivo, mouse
[1] = system: gene expression in microglia, oligodendrocytes, neurons and astrocytes; experiment: Single-cell and single-nucleus RNA sequencing of brain tissue; details: 5×FAD mice
Experimental: Gene expression changes in microglia are strongly associated with AD pathogenesis. Thus, the effect of these treatments on gene expression using single-cell RNA sequencing was investigates (10× Genomics, #Chromium Next GEM Single Cell 3′ Kit v3.1, 16 rxns PN-1000268). […] The gene expression changes between treatment conditions in the microglia cluster were examined. […] Further, due to the depth of the gene expression analysis sub-clustering of microglia was performed.
As neurons were not represented from the single-cell RNA-sequencing (FIGS. 8A-12), to study the effect of these treatments on gene expression in neurons, single nucleus RNA-sequencing was performed (10× Genomics, #Chromium Next GEM Kit v3.1, 16 rxns PN-1000268). […] The gene expression changes between treatment conditions in the interneurons cluster were examined.
Mice were killed and the brain tissue was freshly dissected out and the single cell suspension or nuclei was prepared. Single cell RNA libraries were prepared using the Chromium Next GEM Single Cell 3′ Kit v3.1 according to the manufacturer's protocol (10× Genomics). The generated scRNA-seq libraries were sequenced using NovaSeq. Gene counts were obtained by aligning reads to the mouse genome. […]
RNA sequencing: The animals and brain tissues were prepared, and then the single nuclei from the brain tissue was then obtained. […] The RNA-seq data was analyzed in R package. […]

[2] = system: CSF1R resistant progenitor-like MAC2+ microglia; experiment: MAC2+ microglia immunohistochemistry; details: 5×FAD mice; Plx3397 diet 50 days vs control
Experimental: To study how CSF1R-sensitive microglia impact neural activity in the context of AD, an amyloidosis mouse model, the 5×FAD mice—which is a most commonly used mouse model for AD, was subject to a diet containing CSF1R inhibitor Plx3397 for 50 days (FIG. 21A). The CSF1R inhibitor Plx3397 (600 ppm) was employed, which was previously shown to effectively reduce microglia in vivo. Control mice were age-matched 5×FAD litters that received a regular diet. Electrophysiological recordings were performed using linear probes. Post-recording, the recording site in the visual cortex was verified by histology (FIG. 21), and microglia reduction was evaluated by assessing IBA1+ cell numbers.
Microglia: Iba1 immunoreactive cells were considered microglia. Using an LSM 710 or LSM 880 with a 10× (for Iba1+ cell counts) or 40× (for morphological analysis) objective z stacks of the entire slice thickness […] with […] step size were acquired. Imaris was used for 3D rendering of images to quantify the total volume of microglia. MAC2+ cells were counted manually using Image J.

[3] = system: amyloid plaques (D54D2); experiment: D54D2 amyloid plaque staining in APOE4-KI 5×FAD hippocampus; details: APOE4-KI 5×FAD mice, PLX3397 diet combined with 21 days A+V GENUS
Experimental: Given that APOE4+ individuals accumulate A #earlier than non-carriers, and that APOE facilitates the response of microglia to amyloid, GENUS outcomes in an APOE4-KI amyloid model were examined. To this end, 21d A+V (audio and visual) GENUS in APOE-KI 5×FAD model was performed and amyloid and microglial outcomes were examined.
Next, 7-8 month old male APOE4-KI 5×FAD animals were treated with 3 weeks of PLX3397 diet (or control), followed by 21 days of A+V GENUS, during which animals remained on their diets (FIG. 37).

[4] = system: D54D2 positive amyloid; experiment: D54D2 amyloid immunohistochemistry in 5×FAD mice
From the text: It was next sought to understand whether Plx3397 administration-dependent electrophysiological alterations were attributed to changes in amyloid plaque levels. […] In the cuprizone model of demyelination, Plx33977 administration preserved myelin. It was thus considered whether electrophysiological alterations are associated with myelin levels in Plx3397 treated 5×FAD mice.

FC(F)(F)c1ccc(CNc2ccc(Cc3c[nH]c4ncc(Cl)cc34)cn2)cn1 [Plx3397, Pexidartinib]
genes related to Tyrobp-trem2-Apoe pathway in microglia ([1]; single-cell RNA sequencing, microglia cluster): upregulated | abnormal synaptic transmission genes in E-neurons ([1]; visual cortex, snRNA-seq): upregulated | CSF1R resistant progenitor-like MAC2+ microglia [2]: no difference | amyloid plaque number ([3]; hippocampus CA1): significant reduction | amyloid total area [3]: significant reduction | amyloid staining mean intensity ([3]; vs standard diet): significant reduction | amyloid ([4]; hippocampus, chronic Plx3397 vs control): did not affect | amyloid levels (D54D2 positive amyloid signal) ([4]; visual cortex, chronic Plx3397, not affected vs control): 9894±1181 au
